Results on one sequence are retold here after patent publication US20250034218A1, “ANTIMICROBIAL PEPTIDES” (BiomEdit, LLC, priority 2021, published 2025).

Ends that are not written are not given here. Bounds are passed on as bounds.

Data set [1] relates to E. coli DH5alpha. The format is cell-based, Escherichia coli. To be noted: peptide treated with proteinase K at 37° C. before MIC assay. The procedure: CAP18 peptide variants single mutants were evaluated for resistance to proteinase K. Peptides were subjected to proteinase K treatment and then assessed for bacterial cell killing (against E. coli) in a MIC assay.
CAP18 variants were synthesized from GenScript, Inc, and solubilized in sterile purified water to a final concentration of 4 mg/ml. E. coli DH5alpha was grown overnight in 10 ml LB broth. Ten microliters of each CAP18 variant was treated with 2 μl of proteinase K (Qjagen, >600 mAU/ml) and incubated at 37° C. for 2 or 5 minutes in a PCR machine. The samples were then incubated at 98° C. for 5 minutes to inactivate proteinase K. An MIC assay was set up using proteinase K-treated CAP18 variants in a 96-well plate. Briefly, the peptides were serially diluted 2-fold in LB broth to achieve a final volume of 50 μl in each well and 50 μl of the E. coli DH5alpha culture adjusted to a concentration of 2×10^6 cells/ml was added into each well. Appropriate controls (media only control, no CAP18 control) were included on the same plate. The plates were incubated at 37° C. for 24-48 hours and MIC for each variant was recorded. The experiment was repeated 3 times.

The conditions of data set [2]: 90° C. for 30 minutes; cited from earlier work.
The next data set concerns P. mutlocida. Type of data set: cell-based, Pasteurella multocida. The procedure:
(§1) CAP18 peptide (wild type peptide also herein designated as AMP01) has application and utility for multiple indications in livestock, poultry & aqua species. […] Cap18 peptide is active against viruses of significance for the animal industry, such as PRRSV (PRRS, swine) (FIG. 2C). […] FIG. 3 depicts activity of CAP18 peptide (AMP01) against Giardia.
(§2) Antimicrobial effect of CAP18 against BRD pathogens M. haemolytica and P. multocida was evaluated.

The test system of another data set is Eimeria. As to the kind of experiment: Inhibition of Eimeria parasites. The format is cell-based. To be noted: Eimeria (Coccidiosis, poultry). The procedure: The effect of Cap 18 peptides and any variants thereof is tested on Eimeria. An exemplary study is provided with results depicted in FIG. 4. Three independent experiments were conducted with CAP18 peptides—designated Cap18a, Cap18b and Cap18c. The CAP18 peptides were compared with monensin as a positive control. Three independent experiments with monensin (designated Mona, Monb and Monc).

The test system of data set [3] is Methanobacterium bryantii. Kind of data set: In-vitro screening, growth of rumen methanogen. Type of data set: cell-based. To be noted: FIGS. 10A and 10B; BES as positive control. The text has this:
BES, a known methanogen inhibitor shown in FIG. 10C, was used as a positive control.

Data set [4] deals with porcine reproductive and respiratory syndrome virus (PRRSV). Kind of data set: Inhibition of PRRS virus infection. The format is cell-based. The following applies: 1:2 and 1:4 diluted. The procedure: Antibacterial peptide CAP18 was evaluated for activity inhibiting virus, particularly its antiviral effect on porcine reproductive and respiratory syndrome virus (PRRSV). Results are provided in Figure S. AMP01 polypeptide was evaluated at 1:2 and 1:4 diluted and shown to be effective.

The next data set has as its system Giardia trophozoites. As to the kind of experiment: Giardia trophozoite test tube assay, light microscopy. Type of data set: cell-based. The following applies: AMP01 100 μM, FOR 5 μM. The procedure: Test tube with a confluent layer of trophozoites is treated with AMP01 (100 μM). Light microscopy, counting of detached dead or alive (i.e. motile) trophozoites is then conducted. Formononetin (5 μM; FOR) is used for comparison as a positive control.
The changes in morphology were still visible one day after the treatment and are depicted in FIG. 3 (photographs all taken at 100×). After 1 d, the trophozoites in the control tube (FIG. 3A) were fully alive (and overgrowing), as expected. […] The different sizes of the trophozoites can be noted by comparing the white circles. Similar effects were observed using cytotoxic anti-variant surface protein antibodies (Hemphil et al. 1996).

A further data set deals with Y. ruckeri. The following applies: injection before exposure to Y. ruckeri; compared to non-treated fish; cited from earlier work.
The subject of data set [5] is E. coli DH5alpha. Type of data set: cell-based, Escherichia coli. The following applies: peptide treated with trypsin at 37° C. before MIC assay. The procedure:
CAP18 peptide variants single mutants were evaluated for resistance to trypsin. Peptides were subjected to trypsin protease treatment and then assessed for bacterial cell killing (against E. coli) in a MIC assay.
CAP18 variants were synthesized from GenScript, Inc, and solubilized in sterile purified water to a final concentration of 4 mg/ml. E. coli DH5alpha was grown overnight in 10 ml LB broth. Ten microliters of each CAP18 variant was treated with 2 μl (or 2 μl of the 10-fold diluted trypsin) of trypsin (0.25%, Sigma Aldrich) and incubated at 37° C. for 2 or 5 minutes in a PCR machine. The samples were then incubated at 98° C. for 5 minutes to inactivate trypsin. An MIC assay was set up using trypsin-treated CAP18 variants in a 96-well plate. Briefly, the peptides were serially diluted 2-fold in LB broth to achieve a final volume of 50 μl in each well and 50 μl of the E. coli DH5alpha culture adjusted to a concentration of 2×10^6 cells/ml was added into each well. Appropriate controls (media only control, no CAP18 control) were included on the same plate. The plates were incubated at 37° C. for 24-48 hours and MIC for each variant was recorded. The experiment was repeated 3 times.

A further data set concerns E. coli DH5 alpha. The format is cell-based, Escherichia coli. The procedure:
A MIC assay was set up using heat treated CAP18 variants in a 96-well plate. […] Appropriate controls (media only control, no CAP18 control) were included on the same plate. The plates were incubated at 37° C. for 24-48 hours and MIC for each variant was recorded. The experiment was repeated 3 times.

A further data set concerns M. haemolytica. Type of data set: cell-based, Mannheimia haemolytica. To be noted: plate assay, FIG. 2B. The procedure:
as §1, §2

Another data set concerns Giardia. As to the kind of experiment: Giardia plate assay, % of control (Table 3). To be noted: plate G7. The format is cell-based. The text has this:
Data comparing AMP01 (wild type CAP 18 peptide (SEQ ID NO: 1) with various other agents is tabulated in Table 3. NTZ corresponds to nitazoxanide. ALB corresponds to albendazole.

As to “GLRKRLRKFRNKIKEKLKKIGQKIQGLLPKLAPRTDY [AMP01]”, the “Resistance to proteinase K (MIC, ug/ml)” value in the data set on E. coli DH5alpha [1] is more than 400 µg/mL. For the same sequence, in data set [2], the “antimicrobial activity after heat treatment” value is reported as “retain full antimicrobial activity”. Moreover, the MIC against P. mutlocida and in the data set with M. haemolytica was 4 to 8 µg/mL throughout. In the data set on Eimeria, the “inhibiting activity of parasites” value is listed as “effective in inhibiting activity”. The “growth of rumen methanogen” value in data set [3] is “inhibits the growth”. Further, the “antiviral effect on PRRSV” value in data set [4] is reported as “effective”. In addition, in the data set on Giardia trophozoites (after 1 h), the detachment of trophozoites result is recorded as “nearly complete detachment”. Also, the “morphology and motility of detached trophozoites” value in the data set on Giardia trophozoites (after 1 h) was “crumbled, shrunken and immotile”. In addition, in the data set with Giardia trophozoites (after 1 d), the state of trophozoites result was “dead, shrunken and started to disintegrate”. For the same sequence, the mortality result with Y. ruckeri is “lower mortality”. Moreover, the “Resistance to trypsin (MIC, ug/ml)” value with E. coli DH5alpha [5] came out at 25 µg/mL. The “Thermotolerance at 90 for 5 minutes (MIC, ug/ml)” value in the data set with E. coli DH5 alpha amounted to 200 µg/mL. For the same sequence, the “% of control MV” value was found to be 141.1% with Giardia (Conc 10 (uM or %)) and 1.0% in the data set on Giardia (Conc 100 (uM or %)).
